Assay results from publication PMC1925066, “Optical biosensor differentiates signaling of endogenous PAR1 and PAR2 in A431 cells” (BMC Cell Biology, 2007).
Where a SMILES comes first, the peptide text is derived from it.

What was measured:
[1] = tested on: EGFR in A431 cells; set-up: method as in PMID 16766609; details: blockage of EGFR tyrosine kinase activity in A431; cited from earlier work
[2] = tested on: EGFR in A431 cells; test: Interference of EGFR activation with PAR signaling, DMR signal; format: cell-based, human
Description: (§1) A431 cells express large numbers of EGF receptors. AG1478 is a potent and selective EGFR tyrosine kinase inhibitor. It is also known that cholesterol removal by mβCD triggers a ligand-independent transactivation of EGFR in A431 cells. Thus, we were interested the interference of EGFR activation with PAR signaling. The preceding stimulation with EGF had little effect on the Ca^2+ mobilization induced by trypsin (Fig. 9a) or thrombin (data not shown).
(§2) Figure 9 The effect of preceding EGF stimulation on PAR signaling. (a) The Ca^2+ mobilization. (b, c) The DMR signals. The ligands were EGF (100 nM), trypsin (100 nM), and thrombin (40 unit/ml). The cell responses with the pre-treatment with the HBSS only were also included as control.
(§3) Corning® Epic™ angular interrogation system with transverse magnetic or p-polarized TM0 mode was used for all studies. The detailed instrumental setup and assay protocols had been previously described. Briefly, all compound solutions were prepared using 1 × HBSS containing minimal amount of dimethyl sulfoxide, while the starved cells were washed and maintained with 100 μl the serum-free DMEM. The cells were then treated with 50 μl 1 × HBSS buffered solution in the absence and presence of a compound, followed by stimulation with ligand solutions. The cellular responses were monitored in real time throughout the assays.

[3] = tested on: endogenous PAR1 and PAR2 in A431 cells; test: MRCAT resonant waveguide grating biosensor DMR assay in quiescent A431 cells; format: cell-based, human; details: for effect of preceding stimulation on trypsin-induced DMR signal: trypsin 200 nM; for desensitization of trypsin-treated cells (DMR signal): trypsin 200 nM first, repeated stimulation separated by ~1 hr; for Gq-type DMR signal: quiescent A431 cells, 20 μM
Experimental: (§4) Human epidermoid carcinoma A431 cells ([…]) were grown in Dulbecco's modified Eagle's medium (DMEM) supplemented with 10% fetal bovine serum (FBS), 4.5 g/liter glucose, 2 mM glutamine, and antibiotics. ~5 × 10^4 cells at passage 3 to 8 suspended in 200 μl the DMEM medium containing 10% FBS were placed in each well of a 96well microplate, and were cultured at 37°C under air/5% CO2 for ~2 days, followed by ~20 hr starvation through continuously culturing in the serum-free DMEM.
as §3
(§5) Unless specifically mentioned, three replicates were carried out for each measurement or each compound. The standard deviation was derived from these measurements (n = 3). […] All dose-dependent responses were analyzed using non-linear regression method with the Prism software (Graph Pad).

[4] = tested on: endogenous PAR1 and PAR2 in A431 cells; test: Fluo-3 Ca2+ mobilization (Ca2+ flux) assay in quiescent A431 cells; format: cell-based, human; details: for maximal [Ca^2+]i elevation: SFLLR-amide at 80 μM; for responsiveness (Ca^2+ mobilization) after pre-stimulation with thrombin: thrombin 40 unit/ml first; for Ca^2+ mobilization response after pre-stimulation with trypsin: trypsin 200 nM first, repeated stimulation separated by 6 min; for rapid and transient increase in intracellular Ca^2+: quiescent A431 cells
Experimental: as §4
Cells were grown in Costar™ 96well clear cell culture microplates. After starvation, the cells were washed with 1× HBSS (1× regular Hank's balanced salt solution, 20 mM HEPES buffer, pH 7.0) in the presence of 2.5 mM probenicid, and labeled in the same buffer containing 4 μM Fluo-3 for 1 hour at room temperature. The cells were then washed twice with buffer, maintained with 100 μl 1× HBSS containing 2.5 mM probenicid. The assay was initiated by transferring 50 μl PAR agonist solution to the cell plate, and calcium signal was recorded over 6 minutes with a 6 sec interval using HTS7000 BioAssay Reader (PerkinElmer Life Science, Boston, MA). The fluorescent intensity before stimulation was recorded and used as a baseline. The percentage increase in fluorescence intensity after stimulation, relative to the baseline fluorescence, was analyzed and used directly as a measure for the increase of intracellular Ca^2+ level induced by PAR agonists.
as §5

[5] = tested on: A431 cells; test: Cell toxicity / cell detachment from the biosensor surface; format: cell-based, human; details: high doses (>8 mM)
[6] = tested on: cell surface cholesterol of A431 cells; test: Effect of cholesterol depletion (cyclodextrin pre-treatment) on agonist-induced Ca2+ mobilization; format: cell-based, human; details: for IC50: one-phase decay fit
Description: Since the physiological significance of co-expression of two receptors in A431 is unclear, we were interested in the possibility of differentiated regulation of PAR1 and PAR2 signaling. A common mechanism for the cell to regulate and differentiate receptor signaling is compartmentalization of receptors and/or their signaling components. Amassing evidences support the hypothesis that there are many cholesterol-rich microdomains at the cell surface membrane, although their characteristics are still under extensive investigations. Such microdomain is believed to enable the sorting and segregation of receptors and their signaling cascades, thus regulating cell signaling. Methyl-β-cyclodextrin (mβCD) has been widely used to extract cell surface choleterol primarily through effluxing, thus disrupting these cholesterol-rich microdomains. Thus, we examined the effect of cholesterol depletion by mβCD on both Ca^2+ mobilization and DMR responses induced by thrombin and trypsin. […] Both dose-dependent inhibition curves appeared fit well with a one-phase decay non-linear regression, leading to an almost identical half-concentration (C1/2 of ~1.5 mM) of mβCD. This is consistent with the fact that mβCD results in rapid effluxing of cell membrane cholesterol molecules; and the amount of remain cell surface cholesterol depends on the concentration of mβCD in solution [27]. The higher concentration mβCD is, the less cholesterol is retained at the cell surface membrane. […]
(§6) Cells were grown in Costar™ 96well clear cell culture microplates. […] The assay was initiated by transferring 50 μl PAR agonist solution to the cell plate, and calcium signal was recorded over 6 minutes with a 6 sec interval using HTS7000 BioAssay Reader (PerkinElmer Life Science, Boston, MA). The fluorescent intensity before stimulation was recorded and used as a baseline. The percentage increase in fluorescence intensity after stimulation, relative to the baseline fluorescence, was analyzed and used directly as a measure for the increase of intracellular Ca^2+ level induced by PAR agonists.

[7] = tested on: cell surface cholesterol of A431 cells; test: Effect of cholesterol depletion (cyclodextrin pre-treatment) on agonist-induced DMR signals; format: cell-based, human
Experimental: Similarly, the mβCD pre-treatment also led to a dose-dependent attenuation of the DMR signals induced by thrombin or trypsin (Fig. 7). However, there is a clear distinction between the inhibition curves of trypsin- and thrombin-induced DMR signals by mβCD. […] As expected, αCD up to 8 mM had little effect on both agonist-induced DMR responses. […] A23187 is a Ca^2+ ionophore, and is able to release stored Ca^2+ from the endoplasmic reticulum in cells.
Figure 7 Cholesterol removal attenuates the agonist-induced DMR signals. mβCD was used to deplete cell surface cholesterol. Its effect on the amplitudes of the P-DMR events induced by (a) thrombin (40 unit/ml) or (b) trypsin (200 nM) was analyzed. In comparison, the effect of αCD was also included. (c) The DMR signals of A431 cells induced by A23187 without or with the pre-treatment with 5 mM mβCD.
as §3

[8] = tested on: EGFR in A431 cells; test: Interference of EGFR activation with PAR signaling, Ca2+ mobilization; format: cell-based, human; details: EGF 100 nM; trypsin 100 nM, thrombin 40 unit/ml
Description: as §1, §2, §6

[9] = 100 nM, trypsin 100 nM, thrombin 40 unit/ml

COc1cc2ncnc(Nc3cccc(Cl)c3)c2cc1OC [AG1478]
effect on trypsin-induced DMR signal [1]: partially attenuated
effect of pre-treatment on inhibition of trypsin-induced DMR by cholesterol depletion ([2]; data not shown): did not counter the inhibitory effect

CC[C@H](C)[C@H](NC(=O)[C@H](CC(C)C)NC(=O)[C@@H](N)CO)C(=O)NCC(=O)N[C@@H](CCCCN)C(=O)N[C@H](C(N)=O)C(C)C [SLIGKV-amide] (H-SLIGKV-NH2; N-terminus assumed)
EC50 ([3]; A431 cells, amplitude of N-DMR event, read-out: EC50 (n = 3) N-DMR): 9.1 ± 2.2 µM
EC50 ([3]; A431 cells, amplitude of P-DMR event, read-out: EC50 (n = 3) P-DMR): 6.1 ± 1 µM
DMR signals in cells with or without pre-stimulation with thrombin ([3]; separated by ~1 hr): almost identical DMR signals
effect of preceding stimulation on trypsin-induced DMR signal ([3]; separated by ~1 hr): only partially attenuated
desensitization of trypsin-treated cells (DMR signal) [3]: only partially
maximal [Ca^2+]i elevation ([4]; A431 cells): 52 ± 6%
EC50 ([4]; A431 cells, read-out: EC50 (n = 3) Ca^2+ flux assay): 3.8 ± 0.4 µM
effect of preceding stimulation on trypsin-induced Ca^2+ mobilization ([4]; peptide 20 μM first, then trypsin 200 nM, separated by 6 min): partially attenuated
responsiveness (Ca^2+ mobilization) after pre-stimulation with thrombin ([4]; separated by 6 min): not
Ca^2+ mobilization response after pre-stimulation with trypsin [4]: completely blocked

OC[C@H]1O[C@@H]2O[C@H]3[C@H](O)[C@@H](O)[C@@H](O[C@H]4[C@H](O)[C@@H](O)[C@@H](O[C@H]5[C@H](O)[C@@H](O)[C@@H](O[C@H]6[C@H](O)[C@@H](O)[C@@H](O[C@H]7[C@H](O)[C@@H](O)[C@@H](O[C@H]1[C@H](O)[C@H]2O)O[C@@H]7CO)O[C@@H]6CO)O[C@@H]5CO)O[C@@H]4CO)O[C@@H]3CO [αCD, α-cyclodextrin]
cell toxicity and cell detachment from the biosensor surface [5]: detectable cell toxicity
effect on trypsin and thrombin-induced Ca^2+ mobilization responses ([6]; up to 8 mM): little effect
effect on both agonist-induced (thrombin, trypsin) DMR responses ([7]; up to 8 mM): little effect

GYPGQV
Gq-type DMR signal [3]: only PAR1 and PAR2 agonists resulted in
rapid and transient increase in intracellular Ca^2+ [4]: only PAR1 and PAR2 agonists resulted in

Methyl-β-cyclodextrin [mβCD]
IC50 ([6]; thrombin 40 unit/ml, read-out: half-concentration (C1/2) for suppression of thrombin-induced Ca^2+ mobilization): ~1500 µM
IC50 ([6]; trypsin 200 nM, read-out: half-concentration (C1/2) for suppression of trypsin-induced Ca^2+ mobilization): ~1500 µM
effect on DMR signal induced by 5 μM A23187 ([7]; pre-treatment at 5 mM): little effect
IC50 ([7]; thrombin 40 unit/ml, P-DMR amplitude, read-out: C1/2 for suppression of thrombin-induced DMR): 1200 ± 300 µM
IC50 ([7]; trypsin 200 nM, 2-phase decay, read-out: C1/2 for inhibition of trypsin-mediated DMR, first phase): 5000 ± 1000 µM
IC50 ([7]; trypsin 200 nM, 2-phase decay, read-out: C1/2 for inhibition of trypsin-mediated DMR, second phase): 11000 ± 2000 µM

TFRGAP
Gq-type DMR signal [3]: only PAR1 and PAR2 agonists resulted in
rapid and transient increase in intracellular Ca^2+ [4]: only PAR1 and PAR2 agonists resulted in

Thrombin: serine protease, PAR1 agonist, purchased from Sigma
EC50 (n = 3) N-DMR ([3]; A431 cells, amplitude of N-DMR event): 11.0 ± 1.9 unit/ml
EC50 (n = 3) P-DMR ([3]; A431 cells, amplitude of P-DMR event): 9.6 ± 2.0 unit/ml
effect of preceding stimulation on trypsin-induced DMR signal ([3]; separated by ~1 hr): only partially attenuated
desensitization of trypsin-treated cells (DMR signal) [3]: completely desensitized
EC50 (n = 3) Ca^2+ flux assay ([4]; A431 cells): 6.0 ± 1.0 unit/ml
maximal [Ca^2+]i elevation ([4]; A431 cells): 48 ± 4%
responsiveness (Ca^2+ mobilization) after pre-stimulation with thrombin ([4]; separated by 6 min): completely inhibited
Ca^2+ mobilization response after pre-stimulation with trypsin [4]: completely blocked

bradykinin (RPPGFSPFR; Bradykinin; UniProt P01042 381-389, looked up) [agonist for bradykinin B2 receptor]
effect of preceding stimulation on DMR signal induced by any PAR agonist ([3]; bradykinin 100 nM first, separated by ~1 hr): no obvious effect
desensitization of trypsin-treated cells (DMR signal) [3]: not
Ca^2+ mobilization response after pre-stimulation with PAR agonists ([4]; bradykinin 100 nM, separated by 6 min): neither of PAR agonists examined had any effect

epidermal growth factor (NSDSECPLSHDGYCLHDGVCMYIEALDKYACNCVVGYIGERCQYRDLKWWELR; UniProt P01133 971-1023, looked up) [EGF, epidermal growth factor, purchased from Sigma]
effect of preceding stimulation on Ca^2+ mobilization induced by trypsin or thrombin [8]: little effect
effect on N-DMR event induced by either trypsin or thrombin [2, 9]: almost completely inhibited
effect on P-DMR event induced by either trypsin or thrombin [2, 9]: only slightly attenuated
